Experiments:
[1] = Cell cytotoxicity, CCK-8 assay; format: cell-based; conditions: African green monkey, Vero E6 cells
VPS34 = conditions: read-out: enzymatic inhibitory potency against VPS34; ref [30], [31], [32], [33]; cited from earlier work
[2] = Plasma PK profile after single intraperitoneal injection; format: in vivo, C57BL/6 mice
[3] = Tissue distribution after ip administration; format: in vivo, mice; conditions: 10 mg/kg ip
[4] = Degradation in liver microsomes; format: in vitro ADME
CYP3A4 = CYP3A4 (Homo sapiens, UniProt P08684); assay: Screening of cytochrome P450 enzymes responsible for degradation; format: in vitro ADME; conditions: liver microsomes, CYP450 screening
CYP3A4, sequence (P08684 whole entry, species assumed): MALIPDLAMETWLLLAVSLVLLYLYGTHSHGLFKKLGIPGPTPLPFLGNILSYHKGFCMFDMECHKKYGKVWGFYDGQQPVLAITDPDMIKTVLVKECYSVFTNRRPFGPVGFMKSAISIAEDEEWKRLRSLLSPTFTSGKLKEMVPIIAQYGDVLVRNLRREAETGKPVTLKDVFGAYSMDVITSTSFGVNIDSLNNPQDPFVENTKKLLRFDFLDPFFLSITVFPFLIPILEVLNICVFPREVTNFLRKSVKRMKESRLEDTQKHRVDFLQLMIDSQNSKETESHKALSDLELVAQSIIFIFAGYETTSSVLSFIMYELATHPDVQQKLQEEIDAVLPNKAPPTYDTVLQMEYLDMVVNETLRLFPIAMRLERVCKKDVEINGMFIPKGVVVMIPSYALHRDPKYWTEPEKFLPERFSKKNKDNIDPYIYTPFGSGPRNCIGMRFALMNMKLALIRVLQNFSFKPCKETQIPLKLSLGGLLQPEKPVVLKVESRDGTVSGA

AUC(0-t) ([2]; C57BL/6, mouse, ip, 10 mg/kg) [ng·h/mL] | Cmax ([2]; C57BL/6, mouse, ip, 10 mg/kg) [ng/mL] | half-life ([2]; C57BL/6, mouse, ip, 10 mg/kg) [min] | Tmax ([2]; C57BL/6, mouse, ip, 10 mg/kg, Tmax, mice, 10 mg/kg ip) [min] | CL ([2]; mice, 10 mg/kg ip) [mL/min/kg] | time to Cmax in tissues (cardiorespiratory and renal systems) [3] [min] | time to extensive degradation to minimal levels in liver microsomes [4] [min] | degradation upon addition of 6β-hydroxytestosterone, a specific inhibitor of CYP3A4 (CYP3A4) | SMILES | CC50 at 48 h [1] [µM] | IC50 (VPS34) [µM]
– | – | – | – | – | – | – | – | Nc1ncc(-c2ccnc(Nc3ccncc3)n2)c(CC2CC2)n1 [PIK-III] | 45.8 | 0.018
[…] | 5820 ± 723 | […] | 8.4 ± 6 | […] | ≤ 10 | […] | almost completely attenuated | C[C@@H]1COCCN1c1cc(=O)n2c(n1)N(Cc1cncc(Cl)c1)[C@H](C(F)(F)F)CC2 [SAR405] | […] | […]
– | – | – | – | – | – | – | – | CC(C)(O)CNc1ncc(-c2ccnc(Nc3ccnc(Cl)c3)n2)c(CC2CC2)n1 [VPS34-IN-1] | 11 | 0.025
– | – | – | – | – | – | – | – | CC(C)C(=O)CN1c2nc(N3CCOC[C@H]3C)cc(=O)n2CC[C@H]1C(F)(F)F [VPS34-IN-2, (2S)-8-[(3R)-3-methylmorpholin-4-yl]-1-(3-methyl-2-oxobutyl)-2-(trifluoromethyl)-3,4-dihydro-2H-pyrimido[1,2-a]pyrimidin-6-one] | 54.5 | –
